BindingDB's records for doi:10.1016/S0960-894X(01)80331-0 (1994)

Key:
[1] = In Vitro Binding affinity againist 5-hydroxytryptamine 1D receptor by displacing [125I]GTI from pig caudate
[2] = In Vitro Binding affinity againist 5-HT1A receptor by displacing [3H]8-OH-DPAT from pig cortex
[3] = In Vitro Binding affinity againist 5-hydroxytryptamine 2C receptor by displacing [3H]mesulergine from pig cortex

Row | Structure (SMILES) | IC50 [1] [nM] | IC50 [2] [nM] | IC50 [3] [nM]
1 | NCCC1COc2ccc(C(N)=O)cc21 (stereo unspecified) | 776 | 72 | 8130
2 | NCCc1coc2ccc(C(N)=O)cc12 | 43 | 4.6 | 661
